For one molecule, IC50 and GI50 results are on record in patent publication US11608343B2, “Substituted pyrimido[5,4-d]pyrimidines as HER2 inhibitors” (Boehringer Ingelheim International GmbH, priority 2020, dated 2023).

As usually defined, the IC50 is the point on the concentration scale where inhibition reaches its midpoint. The GI50 is the concentration at which growth is held to half of that of the control.

Common to all, as to assay type: cell-based
For experiment [1], the target named is T1, EGFR wild type (WT) (Homo sapiens, UniProt P00533).
T1 construct: expressed in transfected cells; host or cells: human HEK cells (ATCC CRL-1573), retroviral transduction
The experiment in a line: pEGFR assay: phosphorylation of EGFR at Tyr1068 in HEK cells expressing EGFR WT (AlphaScreen Surefire). The conditions noted are these: 4 h with compound. The procedure:
This assay quantifies the phosphorylation of EGFR at Tyr1068 and is used to measure the inhibitory effect of compounds on the transgenic EGFR wild type (WT) protein expressed in HEK cells.
(§1) Transduced cells are selected using puromycin. p-EGFR Tyr1068 is determined using the AlphaScreen Surefire pEGF Receptor (Tyr1068) Assay (PerkinElmer, TGRERS). For the assay, HEK EGFR WT cells are seeded in MEM medium with 10% FBS. […] Subsequently, 60.000 cells/well in 60 μL are added. Cells are incubated with compound for 4 h at 37° C. […] The mixture is incubated at a temperature of 20-25° C. with shaking (700 rpm) for 20 min. After centrifugation, 4 μL of the lysate are transferred to Proxiplates. […] Plates are shaken for 1 min (1400 rpm) and incubated for 2 h at a temperature of (20-25° C.) in the dark. […] Plates are shaken for 1 min (1400 rpm) and incubated for 2 h at a temperature of (20-25° C.) in the dark. Plates are subsequently analyzed using an Envision reader platform. […] IC50 values are computed from these values in the MEGASTAR IC50 application using a 4 parametric logistic model.
This cellular phospho-EGFR (pEGFR) compound dose-response assay quantifies the phosphorylation of EGFR at Tyr1068 in HEK cells expressing EGFR WT. The results of the assay are provided as IC50 values.

Experiment [2] concerns NCI-H2170 (HER2 wild type) cells. As to the kind of experiment: Tumor cell line proliferation assay, NCI-H2170 (HER2 wild type), CellTiter-Glo. The following applies: Homo sapiens, 72 h, read-out: GI50 NCI H-2170 HER2 wt amp. As to the method: (§2) For proliferation assays, NCI-H2170 (HER2 wild type), NCI-H2170 HER2 YVMA and EGFR WT dependent A431 cells are used. NCI-H2170 HER2 YVMA or NCI-H2170 cells are seeded into 96-well plates at 750 cells/60 μL in growth media (RPMI ATCC+10% FCS, +Penicillin/Streptomycin). […] Compounds are added by using a HP D3000 Digital Dispenser one day after plating the cells. All treatments are performed in technical triplicates. Treated cells are incubated for 72 h at 37° C. with 5% CO2. CellTiter-Glo® Luminescent Cell Viability Assay (Promega) is performed and chemoluminescence is measured by using the multilabel Plate Reader VICTOR X4. The raw data are imported into and analyzed with the Boehringer Ingelheim proprietary software MegaLab (curve fitting based on the program PRISM, GraphPad Inc.).
For orientation: ATP-based viability assays read luminescence as a measure of living cells.

Experiment [3] has as its system Ba/F3 cells HER2 WT. The experiment in a line: Ba/F3 proliferation assay, HER2 WT, CellTiter-Glo. The conditions noted are these: Mus musculus, BaF3, 72 h. The procedure:
(§3) Ba/F3 Cell Model Generation and Proliferation Assays
(§4) Plasmids containing HER2 mutants and EGFR WT were obtained from GeneScript. To generate EGFR/HER2-dependent Ba/F3 models, Ba/F3 cells are transduced with retroviruses containing vectors that harbor EGFR WT, HER2 WT or HER2 mutants (YVMA). Platinum-E cells (Cell Biolabs) are used for retrovirus packaging. Retrovirus is added to Ba/F3 cells. To ensure infection, 4 μg/mL polybrene is added and cells are spin-infected. Infection efficiency is confirmed by measuring GFP-positive cells using a cell analyzer. Cells with an infection efficiency of 10% to 20% are further cultivated and puromycin selection with 1 μg/mL is initiated. As a control, parental Ba/F3 cells are used to assess the selection status. Selection is considered successful when parental Ba/F3 cells cultures die. To evaluate the transforming potential of HER2 mutations, the growth medium is no longer supplemented with IL-3. Ba/F3 cells harboring the empty vector are used as a control. A switch from IL-3 to EGF is performed for Ba/F3 cells expressing EGFR WT known for its dependency on EGF ligand. Approximately ten days before conducting the experiments, puromycin is left out. For proliferation assays (data in tables 10 and 12), Ba/F3 cells are seeded into 96-well plates at 5×10^3 cells/100 μL in growth media. Compounds are added by using a HP D3000 Digital Dispenser. All treatments are performed in technical triplicates. Treated cells are incubated for 72 h at 37° C. with 5% CO2. A CellTiter-Glo® Luminescent Cell Viability Assay (Promega) is performed and chemoluminescence is measured by using the multilabel Plate Reader VICTOR X4. The raw data are imported into and analyzed with the Boehringer Ingelheim proprietary software MegaLab (curve fitting based on the program PRISM, GraphPad Inc.).

The subject of experiment [4] is NCI-H2170 HER2 YVMA cells. As to the kind of experiment: Tumor cell line proliferation assay, NCI-H2170 HER2 YVMA, CellTiter-Glo. The following applies: Homo sapiens, 72 h, read-out: GI50 NCI H-2170 HER2 YVMA.
Description: HER2 YVMA Tumor Cell Line Model Generation and Proliferation Assays
Homology-directed genome engineering is employed to insert a 12 nucleotide sequence encoding YVMA into Exon 20 of the genomic HER2 locus in NCI-H2170 cells. […] The DNA template containing the HER2 exon 20 YVMA insertion variant was obtained from GenScript. PCR followed by Sanger sequencing is used to confirm the presence of the 12-nucleotide insertion in HER2 Exon 20 resulting in the YVMA amino acid duplication.
as §2

Experiment [5] has as its system Ba/F3 cells HER2 mutants (YVMA). The experiment in a line: Ba/F3 proliferation assay, HER2 YVMA, CellTiter-Glo. The conditions noted are these: Mus musculus, BaF3, 72 h. The procedure:
as §3, §4

The subject of experiment [6] is EGFR WT dependent A431 cells. As to the kind of experiment: Tumor cell line proliferation assay, EGFR WT dependent A431 cells, CellTiter-Glo. The conditions noted are these: Homo sapiens, A-431, 72 h, read-out: GI50 A431 EGFR wt amp. As to the method:
as §2

Experiment [7] addresses T2, HER2 YVMA (Homo sapiens, UniProt P04626, INS775YVMA).
T2 construct: expressed in transfected cells; host or cells: human HEK cells, retroviral transduction, doxycycline-inducible expression
The experiment in a line: pHER2 (ERBB2) YVMA assay: phosphorylation of HER2 YVMA at Tyr1221/1222 in HEK cells (AlphaScreen Surefire). The following applies: doxycycline induced, 4 h with compound. As to the method:
as §1, with “For” for “Transduced cells are selected using puromycin. p-EGFR Tyr1068 is determined using the AlphaScreen Surefire pEGF Receptor (Tyr1068) Assay (PerkinElmer, TGRERS). For”, “HER2 YVMA” for “EGFR WT”, “FBS. 4 hours prior to compound addition, HER2 YVMA expression is induced using 1 μg/mL Doxycycline.” for “FBS.”, “20-25° C.” for “(20-25° C.)”, “model. […] The results of the assay are provided as IC50 values.” for “model.”

Experiment [8] relates to Ba/F3 cells expressing EGFR WT. The experiment in a line: Ba/F3 proliferation assay, EGFR WT (EGF dependent), CellTiter-Glo. The following applies: Mus musculus, BaF3, EGF instead of IL-3, 72 h, read-out: GI50 BAF3 EGF dep. As to the method:
as §3, §4

T1 sequence (P00533 25-1210): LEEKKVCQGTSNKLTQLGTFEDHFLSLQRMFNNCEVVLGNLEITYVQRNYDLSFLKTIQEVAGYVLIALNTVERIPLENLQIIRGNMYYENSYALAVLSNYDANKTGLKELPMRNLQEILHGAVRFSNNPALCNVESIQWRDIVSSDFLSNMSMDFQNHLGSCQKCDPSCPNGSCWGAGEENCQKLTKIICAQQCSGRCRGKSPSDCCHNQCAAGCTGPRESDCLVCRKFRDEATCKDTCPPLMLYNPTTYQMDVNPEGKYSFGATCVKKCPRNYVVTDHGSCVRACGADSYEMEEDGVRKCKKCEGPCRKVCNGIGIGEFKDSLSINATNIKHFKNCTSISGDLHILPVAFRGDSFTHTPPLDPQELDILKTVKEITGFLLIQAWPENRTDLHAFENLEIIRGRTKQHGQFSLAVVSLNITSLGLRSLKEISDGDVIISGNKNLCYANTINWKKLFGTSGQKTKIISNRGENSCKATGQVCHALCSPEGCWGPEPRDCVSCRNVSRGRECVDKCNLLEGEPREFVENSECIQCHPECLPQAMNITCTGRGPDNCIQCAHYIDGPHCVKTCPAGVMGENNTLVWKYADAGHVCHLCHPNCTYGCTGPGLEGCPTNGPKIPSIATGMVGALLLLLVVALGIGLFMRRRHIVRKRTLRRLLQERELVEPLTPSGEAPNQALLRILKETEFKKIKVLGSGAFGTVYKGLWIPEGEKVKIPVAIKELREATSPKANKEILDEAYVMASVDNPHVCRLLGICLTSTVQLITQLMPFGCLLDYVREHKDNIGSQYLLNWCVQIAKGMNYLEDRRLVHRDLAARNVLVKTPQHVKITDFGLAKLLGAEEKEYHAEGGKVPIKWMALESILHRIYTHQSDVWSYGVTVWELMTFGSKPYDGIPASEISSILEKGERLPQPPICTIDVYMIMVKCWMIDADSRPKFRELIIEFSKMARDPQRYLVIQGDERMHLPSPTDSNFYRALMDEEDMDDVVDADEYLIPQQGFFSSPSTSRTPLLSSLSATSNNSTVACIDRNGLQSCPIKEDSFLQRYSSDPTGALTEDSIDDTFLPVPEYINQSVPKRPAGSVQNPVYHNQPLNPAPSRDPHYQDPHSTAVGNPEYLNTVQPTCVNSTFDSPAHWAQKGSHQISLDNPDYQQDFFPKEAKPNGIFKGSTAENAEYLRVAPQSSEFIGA
T2 sequence (P04626 with tags, fused parts or gaps INS775YVMA): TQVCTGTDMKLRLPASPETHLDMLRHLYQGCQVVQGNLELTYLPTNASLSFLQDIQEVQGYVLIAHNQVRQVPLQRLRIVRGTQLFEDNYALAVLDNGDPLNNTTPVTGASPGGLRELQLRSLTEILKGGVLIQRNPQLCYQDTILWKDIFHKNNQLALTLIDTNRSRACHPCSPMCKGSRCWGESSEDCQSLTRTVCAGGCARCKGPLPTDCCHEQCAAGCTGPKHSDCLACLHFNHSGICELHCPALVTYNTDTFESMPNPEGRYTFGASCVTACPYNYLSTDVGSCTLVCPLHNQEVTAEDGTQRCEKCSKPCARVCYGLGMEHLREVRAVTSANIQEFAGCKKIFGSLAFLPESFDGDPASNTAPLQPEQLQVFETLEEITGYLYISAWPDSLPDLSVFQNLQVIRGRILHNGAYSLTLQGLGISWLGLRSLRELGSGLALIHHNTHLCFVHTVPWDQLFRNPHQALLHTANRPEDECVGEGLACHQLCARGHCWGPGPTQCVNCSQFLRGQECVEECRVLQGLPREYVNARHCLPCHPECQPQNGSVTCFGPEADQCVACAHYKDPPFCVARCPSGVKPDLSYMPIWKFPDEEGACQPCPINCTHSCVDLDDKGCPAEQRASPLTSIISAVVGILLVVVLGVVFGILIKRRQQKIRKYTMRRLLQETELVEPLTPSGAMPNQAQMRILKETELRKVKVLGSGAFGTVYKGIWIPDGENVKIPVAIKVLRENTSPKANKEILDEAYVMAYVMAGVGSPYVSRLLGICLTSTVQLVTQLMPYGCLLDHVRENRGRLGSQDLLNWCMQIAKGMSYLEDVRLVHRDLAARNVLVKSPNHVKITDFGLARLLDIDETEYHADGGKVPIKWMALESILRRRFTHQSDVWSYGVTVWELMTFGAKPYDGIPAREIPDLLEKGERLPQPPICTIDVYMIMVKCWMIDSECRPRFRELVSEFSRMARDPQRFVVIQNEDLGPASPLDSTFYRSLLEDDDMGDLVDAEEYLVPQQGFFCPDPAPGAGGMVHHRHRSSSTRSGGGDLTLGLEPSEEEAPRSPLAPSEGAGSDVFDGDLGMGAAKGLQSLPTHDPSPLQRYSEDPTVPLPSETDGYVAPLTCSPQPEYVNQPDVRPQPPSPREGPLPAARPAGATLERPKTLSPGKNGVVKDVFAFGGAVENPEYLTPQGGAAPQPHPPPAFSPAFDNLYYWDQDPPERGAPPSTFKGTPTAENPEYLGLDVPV

On to `C=CC(=O)Nc1cccc(-n2c(=O)c(Oc3ccc(F)cc3F)cc3cnc(Nc4cnn(C)c4)nc32)c1` [WO 2019/046775 Comp. 2, reference compound], for which the IC50 was determined as 7 nM in experiment [1] and 11 nM in experiment [7]. Also, the GI50 stood at 22 nM in experiment [2]; 3 nM in experiment [3]; 34 nM in experiment [4]; 14 nM in experiment [5]; 16 nM in experiment [6]; 13 nM in experiment [8].
